Test systems include CCRF-CEM; RPMI-8226; HCT-15; K562; HOP-62; CAKI-1; A498; MCF7; A549; SF-539; DU-145; SNB-75; MOLT-4; KM12; U-251; IGROV-1; MDA-MB-231; UACC-62; HT-29; NCI-H23.
Holding throughout (assay): inhibition of tumour cell growth, NCI panel, 48 h

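In this assay, cells in 96-well plates receive the compound at five concentrations for 48 hours. Endpoints are linearly interpolated between the surrounding concentrations. GI50 = concentration required for 50% inhibition of growth.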 The source made the active and inactive calls. Cut-off read from the data, not from the text of the source: active = GI50 up to about 1.1 µM and inactive = higher.

With `COc1cc(/C=C/c2ccc(/C=C/c3cc(OC)c(OC)c(OC)c3)cc2)cc(OC)c1OC`, the GI50 was > 100 µM (inactive) with CCRF-CEM; 41.6 µM (inactive) with RPMI-8226; greater than 100 µM in the experiment on HCT-15; 96.2 µM (inactive) with K562; 16.6 µM (inactive) in the experiment on HOP-62; 21.6 µM (inactive) with CAKI-1. Also, the GI50 was 10.5 µM (inactive) in the experiment on A498; > 100 µM (inactive) with MCF7; 40.9 µM (inactive) in the experiment on A549; 4.6 µM (inactive) with SF-539; 88.7 µM (inactive) in the experiment with DU-145; 6.34 µM (inactive) in the experiment on SNB-75. The GI50 in the experiment on MOLT-4 was > 100 µM (inactive); in the experiment on KM12, 29.5 µM (inactive); in the experiment with U-251 it was 13.3 µM (inactive); in the experiment on IGROV-1 it was 26.5 µM (inactive); in the experiment with MDA-MB-231, 19.9 µM (inactive); with UACC-62, 7.89 µM (inactive). Moreover, the GI50 is 8.26 µM (inactive) with HT-29 and 12.3 µM (inactive) in the experiment with NCI-H23.

In the case of `COC(=O)[C@@H]1c2c(oc3cc(CO)cc(O)c3c2=O)C=C[C@H]1O`, the GI50 with CCRF-CEM is 1.69 µM (inactive); in the experiment on RPMI-8226 it was 2.49 µM (inactive); with HCT-15, 2.7 µM; with K562, 3.28 µM (inactive); in the experiment with HOP-62, 17.9 µM (inactive); in the experiment with CAKI-1, 8 µM (inactive). Further, the GI50 with A498 was 7.26 µM (inactive); in the experiment on MCF7, 2.86 µM (inactive); with A549 it was 16.8 µM (inactive); with SF-539, 2.67 µM (inactive); in the experiment with DU-145, 3.24 µM (inactive); in the experiment on SNB-75, 17.9 µM (inactive). Also, the GI50 with MOLT-4 is 4.52 µM (inactive); with KM12 it was 3.71 µM (inactive); with U-251 it was 10.5 µM (inactive); with IGROV-1, 10.8 µM (inactive); in the experiment with MDA-MB-231 it was 14.1 µM (inactive); in the experiment on UACC-62, 12.3 µM (inactive). For the same molecule, the GI50 in the experiment with HT-29 was 3.39 µM (inactive); in the experiment on NCI-H23, 19 µM (inactive).

`C=C1CC(COc2ccc3c(C)c(C)c(=O)oc3c2C)(c2ccccc2)OC1=O` (stereo not given): the GI50 in the experiment on CCRF-CEM is 0.333 µM (active); in the experiment with RPMI-8226, 0.486 µM (active); in the experiment on HCT-15 it was 1.88 µM; in the experiment on K562, 0.671 µM (active); in the experiment on HOP-62, 6.22 µM (inactive); with CAKI-1 it was 1.5 µM (inactive). Further, the GI50 is 2.7 µM (inactive) in the experiment with A498; 1.42 µM (inactive) in the experiment with MCF7; 11.7 µM (inactive) in the experiment on A549; 2.02 µM (inactive) in the experiment with SF-539; 2.07 µM (inactive) with DU-145; 2.67 µM (inactive) with SNB-75. Also, the GI50 is 1.11 µM (active) in the experiment on MOLT-4; 2.86 µM (inactive) in the experiment with KM12; 7.64 µM (inactive) in the experiment on U-251; 1.73 µM (inactive) in the experiment with IGROV-1; 2.72 µM (inactive) in the experiment with MDA-MB-231; 1.69 µM (inactive) in the experiment with UACC-62. Also, the values for the GI50 in the experiment on HT-29 and in the experiment on NCI-H23 were 1.53 µM (inactive) and 2.04 µM (inactive), respectively.

Regarding `CC1=CC[C@H](C(C)C)C(C(O)[C@@H](C)O[Si](c2ccccc2)(c2ccccc2)C(C)(C)C)C1=O` (stereo not given in full), the GI50 is 19.5 µM (inactive) in the experiment with CCRF-CEM; 9.73 µM (inactive) in the experiment with RPMI-8226; 13.9 µM in the experiment with HCT-15; 9.93 µM (inactive) in the experiment on K562; 20.9 µM (inactive) in the experiment on HOP-62; 14 µM (inactive) in the experiment with CAKI-1. For the same molecule, the GI50 was 18.6 µM (inactive) in the experiment with A498; 15.8 µM (inactive) with MCF7; 14.7 µM (inactive) in the experiment with A549; 20.1 µM (inactive) in the experiment with SF-539; 21.4 µM (inactive) in the experiment on DU-145; 23 µM (inactive) in the experiment with SNB-75. Besides, the GI50 is 7.36 µM (inactive) with MOLT-4; 18.5 µM (inactive) in the experiment with KM12; 15.8 µM (inactive) with U-251; 24.2 µM (inactive) in the experiment with IGROV-1; 15.5 µM (inactive) in the experiment with MDA-MB-231; 14.8 µM (inactive) in the experiment with UACC-62. In addition, the figures for the GI50 in the experiment on HT-29 and with NCI-H23 were 11.9 µM (inactive) and 16.6 µM (inactive), respectively.

Turning to `Clc1ccc(C2NN=C3c4ccccc4OCC32)cc1` (stereo not given), the GI50 was 4.29 µM (inactive) in the experiment on CCRF-CEM; 2.44 µM (inactive) in the experiment on RPMI-8226; 3.08 µM with HCT-15; 3.39 µM (inactive) in the experiment with K562; 6.71 µM (inactive) in the experiment on HOP-62; 12.2 µM (inactive) with CAKI-1. The GI50 in the experiment with A498 was 18.2 µM (inactive); with MCF7, 3.68 µM (inactive); in the experiment on A549 it was 5.41 µM (inactive); with SF-539, 2.17 µM (inactive); in the experiment with DU-145, 14.9 µM (inactive); in the experiment with SNB-75, 5.53 µM (inactive). Moreover, the GI50 in the experiment on MOLT-4 was 4.43 µM (inactive); in the experiment on KM12, 3.64 µM (inactive); in the experiment on U-251 it was 4.09 µM (inactive); in the experiment on IGROV-1, 3.2 µM (inactive); with MDA-MB-231, 2.39 µM (inactive); with UACC-62, 5.07 µM (inactive). The GI50 was 3.13 µM (inactive) with HT-29 and 4.39 µM (inactive) with NCI-H23.

As for `FC(F)(F)c1ccccc1C1SCC2=Nc3ccccc3CN21` (stereo not given), the GI50 is 26.5 µM (inactive) in the experiment on CCRF-CEM; 24.8 µM (inactive) in the experiment with RPMI-8226; 14.1 µM in the experiment with HCT-15; 21.8 µM (inactive) in the experiment with K562; 11.1 µM (inactive) with HOP-62; 24.9 µM (inactive) in the experiment with CAKI-1. Moreover, the GI50 with A498 was 17.1 µM (inactive); in the experiment with MCF7 it was 13.6 µM (inactive); in the experiment with A549, 14.5 µM (inactive); in the experiment with SF-539 it was 10.8 µM (inactive); in the experiment with DU-145, 12.8 µM (inactive); with SNB-75, 14 µM (inactive). Also, the GI50 in the experiment with MOLT-4 was 21.8 µM (inactive); with KM12, 12.9 µM (inactive); in the experiment with U-251 it was 28.4 µM (inactive); in the experiment with IGROV-1, 16.1 µM (inactive); with MDA-MB-231, 23.5 µM (inactive); with UACC-62 it was 13.2 µM (inactive). Also, the GI50 in the experiment with HT-29 is 16.4 µM (inactive); with NCI-H23, 11.9 µM (inactive).

`CC(C)C(=O)Oc1cc2c(=O)oc3c(OC(=O)C(C)C)c(OC(=O)C(C)C)cc4c(=O)oc(c1OC(=O)C(C)C)c2c34`: the GI50 in the experiment on CCRF-CEM was > 100 µM (inactive); with RPMI-8226, > 100 µM (inactive); in the experiment with HCT-15, greater than 100 µM; with K562 it was > 100 µM (inactive); in the experiment on HOP-62 it was > 100 µM (inactive); in the experiment with CAKI-1 it was > 100 µM (inactive). The GI50 with A498, with MCF7, in the experiment on A549, in the experiment on SF-539, with DU-145 and in the experiment on SNB-75 was > 100 µM (inactive) each time. Moreover, the GI50 in the experiment on MOLT-4, with KM12, with U-251, in the experiment with IGROV-1, in the experiment on MDA-MB-231 and in the experiment on UACC-62 was > 100 µM (inactive) each time. For the same molecule, the GI50 with HT-29 and with NCI-H23 was > 100 µM (inactive) throughout.

As to `CC(=O)NNC1=NN(C(C)=O)C2(S1)C(=O)Nc1ccc(Br)cc12` (stereo not given), the GI50 in the experiment with CCRF-CEM was > 100 µM (inactive); with RPMI-8226, > 100 µM (inactive); with HCT-15, greater than 100 µM; in the experiment on K562, > 100 µM (inactive); in the experiment with HOP-62, > 100 µM (inactive); in the experiment with CAKI-1 it was > 100 µM (inactive). Besides, the GI50 in the experiment with A498, with MCF7, in the experiment with A549, with SF-539, in the experiment with DU-145 and in the experiment on SNB-75 was > 100 µM (inactive) each time. Further, the GI50 with MOLT-4 is > 100 µM (inactive); in the experiment on KM12 it was > 100 µM (inactive); in the experiment on U-251, > 100 µM (inactive); in the experiment with IGROV-1 it was 35.9 µM (inactive); in the experiment on MDA-MB-231, > 100 µM (inactive); in the experiment with UACC-62 it was 79.1 µM (inactive). For the same molecule, the GI50 in the experiment on HT-29 and with NCI-H23 was > 100 µM (inactive) each time.

As for `CNC(=O)Nc1ccccc1`, the GI50 was > 100 µM (inactive) in the experiment on CCRF-CEM; > 100 µM (inactive) in the experiment with RPMI-8226; greater than 100 µM in the experiment on HCT-15; > 100 µM (inactive) in the experiment on K562; > 100 µM (inactive) in the experiment on HOP-62; > 100 µM (inactive) in the experiment on CAKI-1. The GI50 with A498 was > 100 µM (inactive); in the experiment with MCF7, > 100 µM (inactive); in the experiment with A549, > 100 µM (inactive); in the experiment on SF-539 it was > 100 µM (inactive); with DU-145 it was > 100 µM (inactive); in the experiment on SNB-75, > 74.6 µM (inactive). The GI50 in the experiment on MOLT-4, in the experiment with KM12, in the experiment on U-251, in the experiment on IGROV-1, with MDA-MB-231 and in the experiment with UACC-62 was > 100 µM (inactive) throughout. Further, the GI50 in the experiment on HT-29 and in the experiment with NCI-H23 was > 100 µM (inactive) throughout.

Regarding `COc1cc2cc(C(=O)N3CC(CCl)c4ccc(O)cc43)[nH]c2c(OC)c1OC` (stereo not given), the GI50 is < 0.01 µM (active) in the experiment with CCRF-CEM; 0.000556 µM (active) in the experiment on RPMI-8226; 0.00562 µM in the experiment on HCT-15; 0.000282 µM (active) in the experiment with K562; 0.00363 µM (active) with HOP-62; 0.00218 µM (active) in the experiment with CAKI-1. Also, the GI50 is < 0.01 µM (active) in the experiment with A498; < 0.0001 µM (active) in the experiment with MCF7; 0.000501 µM (active) with A549; 0.00171 µM (active) with SF-539; 0.00466 µM (active) with DU-145; 0.00628 µM (active) in the experiment with SNB-75. Moreover, the GI50 in the experiment on MOLT-4 was 0.000865 µM (active); in the experiment on KM12, 0.00507 µM (active); in the experiment with U-251 it was 0.000791 µM (active); in the experiment with IGROV-1, 0.0198 µM (active); in the experiment on MDA-MB-231, 0.00196 µM (active); with UACC-62 it was 0.00136 µM (active). Further, the GI50 was 0.00104 µM (active) in the experiment on HT-29 and 0.00199 µM (active) with NCI-H23.

The values are drawn from ChEMBL document CHEMBL1201862, “PubChem BioAssay data set” (2004).
